Test results from patent US12209102B2, “Heterocyclic compounds and uses thereof” (Kumquat Biosciences Inc., priority 2022, dated 2025).

Tests used:
A549 cells = experiment: Ras cellular assay, growth of cells with K-Ras G12S mutation (CellTiter-Glo); assay type: cell-based; details: Homo sapiens, cell growth, Example 9, G12S mutation, read-out: IC50 against A549 cells
Summary of the method: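 A549 cells (K-Ras G12S) in RPMI-1640 with 10% heat-inactivated FBS, seeded e.g. 800 per well in standard or ultra-low-attachment 384-well plates, treated next day with a dilution series (e.g. 10-point, 3-fold). Viability by CellTiter-Glo luminescence about 6 days later; IC50 from four-parameter fit.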

K-Ras G12S = target: T1, K-Ras G12S (Homo sapiens, UniProt P01116, G12S); experiment: HTRF resonance energy transfer assay, K-Ras G12S / SOS1 interaction; assay type: biochemical; details: HTRF assay of Example 5; read-out: IC50 against K-Ras G12S
T1 construct: made in house; host or cells: E. coli BL21 (DE3)
Summary of the method: (§1)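 GST-tagged K-Ras (WT or mutant) bound to anti-GST-Eu donor was mixed with His-hSOS1 bound to anti-6His-XL665 acceptor in ~5 mM HEPES pH 7.4, 150 mM NaCl, 1 mM DTT, 0.05% BSA, 0.0025% Igepal. HTRF (ex 337, em 620/665 nm) was read after ~10 min or longer. IC50 came from the 665/620 ratio over duplicates from 10 μM to 0.01 μM.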

GP2D cells = experiment: Ras cellular assay, growth of cells with K-Ras G12D mutation (CellTiter-Glo); assay type: cell-based; details: cell growth, Example 9, G12D mutation, read-out: IC50 against GP2D cells
K-Ras G12V = target: T2, K-Ras G12V (Homo sapiens, UniProt P01116, G12V); experiment: HTRF resonance energy transfer assay, K-Ras G12V / SOS1 interaction; assay type: biochemical; details: HTRF assay of Example 5; read-out: IC50 against K-Ras G12V
T2 construct: made in house; host or cells: E. coli BL21 (DE3)
Summary of the method: as §1

SW620 cells = experiment: Ras cellular assay, growth of cells with K-Ras G12V mutation (CellTiter-Glo); assay type: cell-based; details: Homo sapiens, SW-620; cell growth, Example 9, G12V mutation; read-out: IC50 against SW620 cells
Summary of the method: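 SW620 (K-Ras G12V) cells, e.g. 800/well in RPMI-1640 with 10% heat-inactivated FBS on standard or ultra-low attachment plates, were dosed the day after plating with e.g. a 10-point 3-fold series. Viability by CellTiter-Glo luminescence about 6 days later; IC50 from four-parameter fit.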

K-Ras WT = target: T3, K-Ras WT (Homo sapiens, UniProt P01116); experiment: HTRF resonance energy transfer assay, K-Ras WT / SOS1 interaction; assay type: biochemical; details: HTRF assay of Example 5; read-out: IC50 against K-Ras WT
T3 construct: made in house; host or cells: E. coli BL21 (DE3)
Summary of the method: as §1

K-Ras G12D = target: T4, K-Ras G12D (Homo sapiens, UniProt P01116, G12D); experiment: HTRF resonance energy transfer assay, K-Ras G12D / SOS1 interaction; assay type: biochemical; details: HTRF assay of Example 5; read-out: IC50 against K-Ras G12D
T4 construct: made in house; host or cells: E. coli BL21 (DE3)
Summary of the method: as §1

T2 sequence (P01116 1-188 isoform P01116-2 G12V): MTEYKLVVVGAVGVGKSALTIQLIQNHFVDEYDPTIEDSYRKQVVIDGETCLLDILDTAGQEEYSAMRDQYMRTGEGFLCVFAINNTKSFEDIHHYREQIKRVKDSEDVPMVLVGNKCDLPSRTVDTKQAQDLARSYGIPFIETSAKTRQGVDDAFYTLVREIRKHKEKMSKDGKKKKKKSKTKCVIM
T1 sequence (P01116 1-188 isoform P01116-2 G12S): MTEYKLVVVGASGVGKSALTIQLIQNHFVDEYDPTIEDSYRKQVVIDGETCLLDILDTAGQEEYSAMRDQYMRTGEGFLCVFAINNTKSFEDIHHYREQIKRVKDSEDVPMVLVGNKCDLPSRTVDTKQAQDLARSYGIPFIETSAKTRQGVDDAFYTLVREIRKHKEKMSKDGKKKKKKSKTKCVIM
T3 sequence (P01116 1-188 isoform P01116-2): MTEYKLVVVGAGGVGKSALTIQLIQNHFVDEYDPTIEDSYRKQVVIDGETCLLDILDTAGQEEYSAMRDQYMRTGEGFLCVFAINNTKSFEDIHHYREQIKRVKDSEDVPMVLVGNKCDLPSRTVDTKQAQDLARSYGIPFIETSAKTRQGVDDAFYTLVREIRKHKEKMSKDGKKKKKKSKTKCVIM
T4 sequence (P01116 1-188 isoform P01116-2 G12D): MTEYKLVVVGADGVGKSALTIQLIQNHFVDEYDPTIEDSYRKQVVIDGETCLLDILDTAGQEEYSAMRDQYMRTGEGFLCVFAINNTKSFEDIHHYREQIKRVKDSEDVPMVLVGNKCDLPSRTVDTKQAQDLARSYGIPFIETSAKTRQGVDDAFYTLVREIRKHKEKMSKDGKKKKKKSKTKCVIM

Row | Compound | IC50 (A549 cells) [nM] | IC50 (K-Ras G12S) [nM] | IC50 (K-Ras G12V) [nM] | IC50 (SW620 cells) [nM] | IC50 (K-Ras WT) [nM] | IC50 (K-Ras G12D) [nM] | IC50 (GP2D cells) [nM]
1 | N#CCCC1CN(CC(F)F)c2nc(OC[C@@]34CCCN3C[C@H](F)C4)nc3c(F)c(-c4ccc(F)c5sc(N)c(C#N)c45)c(Cl)c(c23)O1 (stereo partly drawn) [Compound 704, 2-amino-4-(8-chloro-6-(2-cyanoethyl)-4-(2,2-difluoroethyl)-10-fluoro-2-(((2R,7aS)-2-fluorotetrahydro-1H-pyrrolizin-7a(5H)-yl)methoxy)-5,6-dihydro-4H-[1,4]oxazepino[5,6,7-de]quinazolin-9-yl)-7-fluorobenzo[b]thiophene-3-carbonitrile] | < 5000 | < 100 | < 100 | < 5000 | < 100 | < 100 | < 500
2 | N#Cc1c(N)sc2c(F)ccc(-c3c(Cl)c4c5c(nc(OC[C@@]67CCCN6C[C@H](F)C7)nc5c3F)N(CC(F)F)CCCO4)c12 [Compound 1218, 2-amino-4-(9-chloro-4-(2,2-difluoroethyl)-11-fluoro-2-(((2R,7aS)-2-fluorotetrahydro-1H-pyrrolizin-7a(5H)-yl)methoxy)-4,5,6,7-tetrahydro-[1,5]oxazocino[4,3,2-de]quinazolin-10-yl)-7-fluorobenzo[b]thiophene-3-carbonitrile] | < 5000 | < 100 | < 100 | < 5000 | < 100 | < 100 | < 500
3 | C[C@@H]1CCOc2c(Cl)c(-c3ccc(F)c4sc(N)c(C#N)c34)c(F)c3nc(OC[C@@]45CCCN4C[C@H](F)C5)nc(c23)N1CC(F)F [Compound 1203, 2-amino-4-((R)-9-chloro-4-(2,2-difluoroethyl)-11-fluoro-2-(((2R,7aS)-2-fluorotetrahydro-1H-pyrrolizin-7a(5H)-yl)methoxy)-5-methyl-4,5,6,7-tetrahydro-[1,5]oxazocino[4,3,2-de]quinazolin-10-yl)-7-fluorobenzo[b]thiophene-3-carbonitrile] | < 5000 | < 100 | < 100 | < 5000 | < 100 | < 100 | < 500
4 | C[C@H]1CN(CCC(F)F)c2nc(OC[C@@]34CCCN3C[C@H](F)C4)nc3c(F)c(-c4ccc(F)c5sc(N)c(C#N)c45)c(Cl)c(c23)O1 [Compound 664, 2-amino-4-((6S)-8-chloro-4-(3,3-difluoropropyl)-10-fluoro-2-(((2R,7aS)-2-fluorotetrahydro-1H-pyrrolizin-7a(5H)-yl)methoxy)-6-methyl-5,6-dihydro-4H-[1,4]oxazepino[5,6,7-de]quinazolin-9-yl)-7-fluorobenzo[b]thiophene-3-carbonitrile] | < 5000 | < 100 | < 100 | < 5000 | < 100 | < 100 | < 500
5 | N#Cc1c(N)sc2c(F)ccc(-c3c(Cl)c4c5c(nc(OC[C@@]67CCCN6C[C@H](F)C7)nc5c3F)N(C3C5CC3N(C=O)C5)CCO4)c12 (stereo partly drawn) [Compound 654, 2-amino-4-(8-chloro-10-fluoro-2-(((2R,7aS)-2-fluorotetrahydro-1H-pyrrolizin-7a(5H)-yl)methoxy)-4-(2-formyl-2-azabicyclo[2.1.1]hexan-5-yl)-5,6-dihydro-4H-[1,4]oxazepino[5,6,7-de]quinazolin-9-yl)-7-fluorobenzo[b]thiophene-3-carbonitrile] | < 5000 | < 100 | < 100 | < 5000 | < 100 | < 100 | < 500
6 | COC1CN(C(=O)N2CCC(N3CCOc4c(Cl)c(-c5ccc(F)c6sc(N)c(C#N)c56)c(F)c5nc(OC[C@@]67CCCN6C[C@H](F)C7)nc3c45)C2)C1 (stereo partly drawn) [Compound 834, 2-amino-4-(8-chloro-10-fluoro-2-(((2R,7aS)-2-fluorotetrahydro-1H-pyrrolizin-7a(5H)-yl)methoxy)-4-(1-(3-methoxyazetidine-1-carbonyl)pyrrolidin-3-yl)-5,6-dihydro-4H-[1,4]oxazepino[5,6,7-de]quinazolin-9-yl)-7-fluorobenzo[b]thiophene-3-carbonitrile] | < 5000 | < 100 | < 100 | < 5000 | < 100 | < 100 | < 500
7 | C[C@H]1CN(CC(F)F)c2nc(OC[C@@]34CCCN3C[C@H](F)C4)nc3c(F)c(-c4ccc(F)c5sc(N)c(C#N)c45)c(Cl)c(c23)O1 [Compound 1021, 2-amino-4-((6S)-8-chloro-4-(2,2-difluoroethyl)-10-fluoro-2-(((2R,7aS)-2-fluorotetrahydro-1H-pyrrolizin-7a(5H)-yl)methoxy)-6-methyl-5,6-dihydro-4H-[1,4]oxazepino[5,6,7-de]quinazolin-9-yl)-7-fluorobenzo[b]thiophene-3-carbonitrile] | < 5000 | < 100 | < 100 | < 5000 | < 100 | < 100 | < 500

Now from value to compound, other results behind:

Row | IC50 (A549 cells) [nM] | IC50 (K-Ras G12S) [nM] | IC50 (K-Ras G12V) [nM] | IC50 (SW620 cells) [nM] | IC50 (K-Ras WT) [nM] | IC50 (K-Ras G12D) [nM] | Compound | IC50 (GP2D cells) [nM]
8 | < 5000 | < 100 | < 100 | < 5000 | < 100 | < 100 | N#Cc1c(N)sc2c(F)ccc(-c3c(Cl)c4c5c(nc(OC[C@@]67CCCN6C[C@H](F)C7)nc5c3F)N(C3CCN(C(=O)C[C@@H]5CCCO5)C3)CCO4)c12 (stereo partly drawn) [Compound 777, 2-amino-4-(8-chloro-10-fluoro-2-(((2R,7aS)-2-fluorotetrahydro-1H-pyrrolizin-7a(5H)-yl)methoxy)-4-(1-(2-((S)-tetrahydrofuran-2-yl)acetyl)pyrrolidin-3-yl)-5,6-dihydro-4H-[1,4]oxazepino[5,6,7-de]quinazolin-9-yl)-7-fluorobenzo[b]thiophene-3-carbonitrile] | < 500
9 | < 5000 | < 100 | < 100 | < 5000 | < 100 | < 100 | C[C@H](Oc1nc2c3c(c(Cl)c(-c4ccc(F)c5sc(N)c(C#N)c45)c(F)c3n1)OCCN2CC(F)F)[C@@H]1CCCN1C [Compound 901, 2-amino-4-(8-chloro-4-(2,2-difluoroethyl)-10-fluoro-2-((S)-1-((S)-1-methylpyrrolidin-2-yl)ethoxy)-5,6-dihydro-4H-[1,4]oxazepino[5,6,7-de]quinazolin-9-yl)-7-fluorobenzo[b]thiophene-3-carbonitrile] | < 500
10 | < 5000 | < 100 | < 100 | < 5000 | < 100 | < 100 | N#Cc1c(N)sc2c(F)ccc(-c3c(Cl)c4c5c(nc(OC[C@@]67CCCN6C[C@H](F)C7)nc5c3F)N(C3CC3)CCO4)c12 [Compound 891, 2-amino-4-(8-chloro-4-cyclopropyl-10-fluoro-2-(((2R,7aS)-2-fluorotetrahydro-1H-pyrrolizin-7a(5H)-yl)methoxy)-5,6-dihydro-4H-[1,4]oxazepino[5,6,7-de]quinazolin-9-yl)-7-fluorobenzo[b]thiophene-3-carbonitrile] | < 500
11 | < 5000 | < 100 | < 100 | < 5000 | < 100 | < 100 | CN1CCC(N2CCOc3c(Cl)c(-c4ccc(F)c5sc(N)c(C#N)c45)c(F)c4nc(OC[C@@]56CCCN5C[C@H](F)C6)nc2c34)C1=O (stereo partly drawn) [Compound 624, 2-amino-4-(8-chloro-10-fluoro-2-(((2R,7aS)-2-fluorotetrahydro-1H-pyrrolizin-7a(5H)-yl)methoxy)-4-(1-methyl-2-oxopyrrolidin-3-yl)-5,6-dihydro-4H-[1,4]oxazepino[5,6,7-de]quinazolin-9-yl)-7-fluorobenzo[b]thiophene-3-carbonitrile] | < 500
12 | < 5000 | < 100 | < 100 | < 5000 | < 100 | < 100 | C[C@H](Oc1nc2c3c(c(Cl)c(-c4ccc(F)c5sc(N)c(C#N)c45)c(F)c3n1)OCCN2[C@@H]1CCN(C=O)C1)[C@@H]1CCCN1C [Compound 621, 2-amino-4-(8-chloro-10-fluoro-4-((R)-1-formylpyrrolidin-3-yl)-2-((S)-1-((S)-1-methylpyrrolidin-2-yl)ethoxy)-5,6-dihydro-4H-[1,4]oxazepino[5,6,7-de]quinazolin-9-yl)-7-fluorobenzo[b]thiophene-3-carbonitrile] | < 500
